Legend:
[1] = target: T1, TLR7 (Mus musculus, UniProt P58681); assay: Patch clamp recording of inward currents and action potentials in small DRG neurons, TLR7 ligands; format: cell-based, mice
T1 construct: We found functional TLR7 receptors in small-size DRG neurons; from tissue; host or cells: small DRG neurons of mice; nape and cheek skin of live mice (C57BL/6J background, CD1)
T1 sequence (P58681 27-1050): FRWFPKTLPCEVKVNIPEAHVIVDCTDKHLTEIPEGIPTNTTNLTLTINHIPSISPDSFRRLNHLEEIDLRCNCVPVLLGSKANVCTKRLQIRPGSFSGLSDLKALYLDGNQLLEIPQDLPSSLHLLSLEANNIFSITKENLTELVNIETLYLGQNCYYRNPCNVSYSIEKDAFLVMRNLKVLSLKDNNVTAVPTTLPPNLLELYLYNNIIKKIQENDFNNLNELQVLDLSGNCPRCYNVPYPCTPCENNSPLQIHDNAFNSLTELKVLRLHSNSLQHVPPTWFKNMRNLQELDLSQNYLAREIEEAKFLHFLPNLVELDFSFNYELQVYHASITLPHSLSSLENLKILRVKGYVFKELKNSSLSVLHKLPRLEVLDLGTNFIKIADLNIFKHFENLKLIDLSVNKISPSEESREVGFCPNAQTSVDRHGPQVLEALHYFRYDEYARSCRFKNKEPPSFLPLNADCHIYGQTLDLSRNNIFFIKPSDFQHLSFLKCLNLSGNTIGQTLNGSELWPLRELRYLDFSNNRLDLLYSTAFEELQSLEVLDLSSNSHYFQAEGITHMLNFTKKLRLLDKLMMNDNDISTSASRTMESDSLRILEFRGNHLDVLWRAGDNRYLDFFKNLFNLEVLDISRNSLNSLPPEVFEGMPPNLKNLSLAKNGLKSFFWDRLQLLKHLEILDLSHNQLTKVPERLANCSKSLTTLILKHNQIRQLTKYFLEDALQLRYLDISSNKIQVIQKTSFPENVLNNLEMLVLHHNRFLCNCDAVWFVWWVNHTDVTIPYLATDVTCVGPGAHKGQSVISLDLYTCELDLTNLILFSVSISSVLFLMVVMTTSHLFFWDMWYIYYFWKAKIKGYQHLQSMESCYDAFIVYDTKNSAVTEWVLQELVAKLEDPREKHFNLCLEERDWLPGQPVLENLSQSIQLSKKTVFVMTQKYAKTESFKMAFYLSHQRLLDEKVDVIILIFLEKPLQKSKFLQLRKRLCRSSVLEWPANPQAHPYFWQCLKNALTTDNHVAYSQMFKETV

[2] = test system: TLR7; assay: Scratches after intradermal injection in the nape of the neck, WT and Tlr7-/- mice; format: in vivo
Source text: We next evaluated whether TLR7 plays a role in itch sensation. We counted the number of scratches (bouts) by a hindpaw of mouse following intradermal injection of pruritogenic agents in the nape of the neck.

[3] = target: T1, TLR7; assay: Cheek model of itch versus pain, TLR7 ligands; format: in vivo, mice; settings: 20 μg intradermal into the cheek
Procedure: To distinguish itch and pain responses simultaneously, we used the cheek model by injection of chemical into cheek of mice (8). After brief anesthesia with isoflurane, we shaved mice on cheeks (approx. 5×8 mm area) two days before experiments. On the day of experiment, we injected 10 μl of reagent (50 μg compound 48/80 or 100 μg chloroquine) into the cheek and counted the number of wipes and the number of scratches for 30 min. We only counted those unilateral wipes with the forelimb that were not part of grooming behavior. One scratch was defined as a lifting of the hind paw toward the injection site on the cheek and then returning the paw to the floor or to the mouth.
To further investigate a unique role of TLR7 in itch versus pain, we used a recently developed “cheek model” of itch (Shimada, S. G. & LaMotte, R. H. Pain 139, 681-687 (2008)).

[4] = test system: mice; assay: Imiquimod-induced scratching in Trpv1-/- and mast cell-deficient SASH mice; format: in vivo
[5] = target: T2, TLR7 (Homo sapiens, UniProt Q9NYK1); settings: cited from earlier work
T2 construct: host or cells: human skin, clinical use (Madan et al. 2010)
T2 sequence (Q9NYK1 27-1049): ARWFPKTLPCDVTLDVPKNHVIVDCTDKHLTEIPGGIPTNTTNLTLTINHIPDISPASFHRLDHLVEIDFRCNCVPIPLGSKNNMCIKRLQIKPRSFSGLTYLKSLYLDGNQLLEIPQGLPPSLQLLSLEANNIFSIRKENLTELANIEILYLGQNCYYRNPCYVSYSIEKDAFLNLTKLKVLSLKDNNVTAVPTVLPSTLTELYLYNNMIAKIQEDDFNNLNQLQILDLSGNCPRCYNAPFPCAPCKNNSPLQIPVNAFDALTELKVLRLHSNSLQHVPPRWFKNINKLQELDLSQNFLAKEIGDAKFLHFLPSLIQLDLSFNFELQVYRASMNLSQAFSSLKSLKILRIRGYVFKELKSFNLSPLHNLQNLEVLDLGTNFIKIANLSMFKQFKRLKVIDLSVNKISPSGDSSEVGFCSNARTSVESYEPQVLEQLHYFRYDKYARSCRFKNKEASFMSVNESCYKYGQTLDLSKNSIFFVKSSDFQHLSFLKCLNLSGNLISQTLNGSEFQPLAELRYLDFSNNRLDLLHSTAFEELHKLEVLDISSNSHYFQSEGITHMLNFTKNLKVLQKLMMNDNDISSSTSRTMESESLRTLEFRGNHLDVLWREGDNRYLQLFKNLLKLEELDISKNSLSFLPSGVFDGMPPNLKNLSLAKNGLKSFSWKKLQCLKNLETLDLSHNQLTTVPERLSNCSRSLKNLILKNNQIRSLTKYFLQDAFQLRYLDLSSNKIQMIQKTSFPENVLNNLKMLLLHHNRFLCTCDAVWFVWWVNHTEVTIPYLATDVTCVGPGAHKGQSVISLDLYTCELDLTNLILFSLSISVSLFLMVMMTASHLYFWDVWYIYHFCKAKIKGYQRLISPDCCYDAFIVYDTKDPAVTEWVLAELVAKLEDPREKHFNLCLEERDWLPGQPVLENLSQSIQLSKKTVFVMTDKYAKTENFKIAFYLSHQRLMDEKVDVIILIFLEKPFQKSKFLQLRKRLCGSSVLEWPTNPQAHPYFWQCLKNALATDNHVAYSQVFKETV

[6] = target: T1, TLR7; settings: mice; cited from earlier work
[7] = test system: TLR7; assay: IMQ-induced scratches after intrathecal TLR7 siRNA; format: in vivo; settings: siRNA 4 μg intrathecal with PEI 48 and 24 h before IMQ (20 mg, 20 μg elsewhere in the source), CD1 mice, vs NT siRNA; P<0.05
Procedure: (§1) 4 μg siRNA targeting TLR7 ([…] (SEQ ID NO:8)) (synthesized by Dharmacon, On-target Plus) or a non-targeting control siRNA ([…] (SEQ ID NO:9)) was administered intrathecallly to wild type (CD1) mice at 24 and 48 hours before the mice received an injection of IMQ ([…]). siRNA was dissolved in RNase-free water at 1 μg/μl as stock solution and mixed with polyethyleneimine (PEI, Fermentas Inc. Hanover, USA, 0.18 μl of PEI solution for 1 μg of siRNA), 10 minutes before injection, to increase cell membrane penetration and reduce the degradation. PEI was dissolved in 5% glucose. After behavioral testing, DRG tissues were collected for quantitative PCR analysis.

[8] = test system: TLR7 mRNA; assay: TLR7 mRNA levels in cervical DRGs by quantitative PCR after siRNA; format: in vivo, mice; settings: siRNA 4 μg intrathecal, P<0.05
Procedure: as §1

neurons from WT mice that respond ([1]; 500 μM, small DRG neurons)	action potentials in DRG neurons ([1]; WT but not Tlr7-/- mice, 500 μM)	response of neurons from Tlr7-/- mice ([1]; all 10 neurons)	inward currents in DRG neurons ([1]; capsaicin-responsive DRG neurons of WT but not Tlr7-/- mice, imiquimod 20-500 μM)	itch-like scratching in cheek model [3]	pain-indicative wiping in cheek model [3]	Compound	dose response curve of scratching ([2]; intradermal injection, nape)	scratches in Tlr7-/- mice versus WT ([2]; intradermal, 100 μg)	reduction in imiquimod-induced scratching in mast cell-deficient SASH mice ([4]; SASH mice vs WT control)	imiquimod-induced scratching in Trpv1-/- mice ([4]; Trpv1-/- vs WT control)	pruritus on topical application [5]	skin inflammation [6]	IMQ induced scratches [7]	TLR7 mRNA levels in cervical DRGs [8]
Eight out of 17	induced action potentials	fail to respond	dose-dependent inward currents	elicited itch-like scratching	not pain-indicative wiping behavior	CC(C)Cn1cnc2c(N)nc3ccccc3c21 [imiquimod]	inverted-U-shaped dose response curve	reduced	28%	remained unaltered	frequently elicits pruritus	induces psoriasis-like skin inflammation	–	–
–	–	–	–	–	–	TLR7 siRNA: siRNA targeting TLR7 (CCUUACACUAUUUCCGAUA, SEQ ID NO:8), synthesized by Dharmacon, On-target Plus (chemistry not given here)	–	–	–	–	–	–	significantly reduced	reduced levels

Source: US9241991B2, “Agents, compositions, and methods for treating pruritus and related skin conditions” (The Brigham and Women's Hospital, Inc., priority 2010, dated 2016)
